Measured values taken from US12239686B2, “Immune checkpoint inhibitor combinations” (LYTIX BIOPHARMA AS, priority 2014, dated 2025).
Non-standard residues stand in square brackets, D forms with d. Residues, ends and D or L forms follow the SMILES beside them. Dip = N[C@H](C(=O)O)C(c1ccccc1)c1ccccc1

Key:
[1] = system: EMT-6 murine mammary carcinoma; assay: EMT-6 mammary carcinoma model, two-flank tumours; type: in vivo, mice
Procedure: The anti-PD-L1 antibody had the following characteristics: ref: BE0101, Bioxcell; clone 10F.9G2; reactivity: mouse; isotype: Rat IgG2b. LTX-315 was prepared at a dose of 0.5 mg/50 μL in 0.9% sodium chloride solution. Anti-PD-L1 antibody was prepared at a concentration in phosphate-buffered saline and was administered at a dose of 10 mg/kg. LTX-315 was injected into the tumour grafted on the right flank of the mice, anti-PD-L1 antibody was injected into the peritoneal cavity of the mice.
Induction of MET-6 tumours in mice: A first tumor was induced by subcutaneous injection of 1×10^6 of EMT-6 cells in 200 μL of RPMI 1640 into the right flank of Balb/C female mice. The day of tumor cell injection in the right flank was considered as DO. A second tumor was induced by subcutaneous injection of 1×10^5 of EMT-6 cells in 200 μL of RPMI 1640 into the left flank of Balb/C female mice. The day of tumor cell injection in the left flank was considered as D3.
Treatment schedule: Mice were randomized according to their body weight on D3 into four groups each of 5 mice (group 1) or 10 mice (groups 3, 5 and 7) using Vivo Manager® software (Biosystemes, Couternon, France). A statistical test (analysis of variance) was performed to test for homogeneity between groups. […]
Mouse monitoring: All study data, including mouse body weight measurements, tumour volume, clinical and mortality records, and treatment were scheduled and recorded on Vivo Manager® database (Biosystemes, Dijon, France). The viability and behaviour was recorded every day. Body weights were measured thrice a week. The length and width of the tumor was measured three times a week with calipers and the volume of the tumour was estimated by the following formula: tumour volume=(width2×length)/2 (SIMPSON-HERREN L. et al. Cancer Chemotherapy Rep., 54: 143, 1970).

[2] = system: murine CT26WT colon carcinoma; assay: Murine CT26WT colon carcinoma tumours in mice, intratumoural treatment; type: in vivo; details: for Mean tumour size (mm^2) at day 1: prior to start of treatment
Procedure: The administration takes place by intra-tumoural injection of LTX-315 dissolved in sterile saline (0.9% NaCl in sterile water).
The mice were divided into five groups, 8 mice in each group. When the tumours reached the desired size of 20 mm^2 the treatment by intra tumoural injection was initiated. Group one was treated solely on day 1, Group two on day 1 and 2, Group three on day 1 and 3 and Group four on day 1, 2 and 3. All daily treatments were one single injection of 1.0 mg LTX-315 dissolved in 50 μl (20 mg/ml). Group five was treated with the 50 μl of vehicle for LTX-315 (Group 5).
Weighing and physical examination were used as health controls.

[3] = Group 1, 1 mg intratumoural day 1
[4] = Group 2, 1 mg intratumoural days 1,2
[5] = Group 3, 1 mg intratumoural days 1,3
[6] = Group 4, 1 mg intratumoural days 1,2,3

## NCCCC[C@H](NC(=O)[C@@H](NC(=O)[C@H](Cc1c[nH]c2ccccc12)NC(=O)[C@H](CCCCN)NC(=O)[C@H](CCCCN)NC(=O)[C@H](Cc1c[nH]c2ccccc12)NC(=O)[C@H](Cc1c[nH]c2ccccc12)NC(=O)[C@H](CCCCN)NC(=O)[C@@H](N)CCCCN)C(c1ccccc1)c1ccccc1)C(N)=O [LTX-315, K-K-W-W-K-K-W-Dip-K-NH2] (H-KKWWKKW[Dip]K-NH2)
[1]; LTX-315 0.5 mg i.t. Q1Dx3, anti-PD-L1 10 mg/kg IP Q2Dx6
  test mice surviving for more than 50 days after tumour induction: 30%
[1]; treated flank, day 52 or when sacrificed
  Proportion of Mice with total tumour regression, Right flank: 30%
[1]; untreated flank, day 52 or when sacrificed
  Proportion of Mice with total tumour regression, Left flank: 10%
[2]; Group 1, 1 mg day 1
  Relapse of Tumour: 20%
[2]; Group 1, 1 mg day 1, n=8
  Free of Tumour at end of Follow-Up: 50%
[2]; [3]
  Mean tumour size (mm^2) on day 6: 4.343 ± 2.295 mm^2
  Mean tumour size (mm^2) on day 10: 7.171 ± 4.035 mm^2
  Mean tumour size (mm^2) on day 17: 3.712 ± 3.712 mm^2
  Mean tumour size (mm^2) at day 1: 22.69 ± 0.4070 mm^2
[2]; Group 2, 1 mg days 1,2
  Relapse of Tumour: 71%
[2]; Group 2, 1 mg days 1,2, n=8
  Free of Tumour at end of Follow-Up: 25%
[2]; [4]
  Mean tumour size (mm^2) on day 6: 1.458 ± 1.458 mm^2
  Mean tumour size (mm^2) on day 10: 5.058 ± 4.014 mm^2
  Mean tumour size (mm^2) on day 17: 6.644 ± 3.430 mm^2
  Mean tumour size (mm^2) at day 1: 22.90 ± 1.155 mm^2
[2]; Group 3, 1 mg days 1,3
  Relapse of Tumour: 29%
[2]; Group 3, 1 mg days 1,3, n=8
  Free of Tumour at end of Follow-Up: 62.5%
[2]; [5]
  Mean tumour size (mm^2) on day 6: 2.983 ± 2.983 mm^2
  Mean tumour size (mm^2) on day 10: 10.85 ± 7.553 mm^2
  Mean tumour size (mm^2) on day 17: 0.00 ± 0.00 mm^2
  Mean tumour size (mm^2) at day 1: 21.43 ± 1.141 mm^2
[2]; Group 4, 1 mg days 1,2,3, n=8
  Free of Tumour at end of Follow-Up: 62.5%
  Tumour Response: complete response: 100%
[2]; [6]
  Mean tumour size (mm^2) on day 6: 0.00 ± 0.00 mm^2
  Mean tumour size (mm^2) on day 10: 0.00 ± 0.00 mm^2
  Mean tumour size (mm^2) on day 17: 1.308 ± 1.308 mm^2
  Mean tumour size (mm^2) at day 1: 24.09 ± 1.653 mm^2
[2]; all four LTX-315 groups together
  treated animals observed with a complete tumour response: 27 of the 32
[2]; all treated groups
  toxic or other adverse effects: No toxic or other adverse effects besides local necrotic tissue and wound formation were observed
